Results on one molecule are retold here after publication PMC5778463 (Nucleic Acids Research, 2017).

Test [1] deals with isolated influenza A PB2 cap-binding domain. The settings on record: cited from earlier work.
The subject of test [2] is influenza B strains. The settings on record: cited from earlier work.
The target in test [3] is B/Memphis cap-midlink double domain (Influenza B virus, UniProt Q5V8X3). Nature of the test: biochemical. Format: binding, influenza B/Memphis/13/03.

SMILES strings stand for the structures. Several values for one entry are separate records, joined by “and”; a condition that tells them apart may be missing. Identical values can stand only once.

B/Memphis cap-midlink double domain, sequence (Q5V8X3 249-540 limits assumed): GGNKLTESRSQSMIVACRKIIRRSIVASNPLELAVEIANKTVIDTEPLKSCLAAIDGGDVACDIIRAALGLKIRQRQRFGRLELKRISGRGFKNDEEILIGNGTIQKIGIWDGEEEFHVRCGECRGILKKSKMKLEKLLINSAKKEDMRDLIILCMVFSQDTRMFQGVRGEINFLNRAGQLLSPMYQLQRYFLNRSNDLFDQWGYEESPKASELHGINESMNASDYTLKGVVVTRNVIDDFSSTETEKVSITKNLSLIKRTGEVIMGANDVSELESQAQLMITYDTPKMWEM

`O=C(O)[C@H]1C2CCC(CC2)[C@@H]1Nc1nc(-c2c[nH]c3ncc(F)cc23)ncc1F` [VX-787]: in test [1], the “times tighter binding than m^7GTP” value is listed as about 60 times. The Kd in test [1] (read-out: affinity to cap-binding domain alone) is ~24 nM and 24 nM; in test [3], 1200 nM. Moreover, in test [2], the “potency against influenza B strains” value is “no potency”.
